Patent US20040248918A1, “N-phenyl-2-pyrimidine-amine derivatives and process for the preparation thereof” (IL YANG PHARM. CO., LTD., priority 2003, published 2004)

Tests used:
mice (ICR) [1] = assay: Acute toxicity test in mice (oral administration); conditions: mouse, in vivo, po, 2000 mg/kg
Method: (§1) In order to determine the acute toxicity of the compound of the present invention when the compound is orally administered, mice (ICR, 24˜26 g) were fasted for 16 hours. One group consists of 10 males and 10 females. The first group is the control group and physiological saline was administered per oral to this group. The compounds of Examples 2 and 4 were orally administered in a dosage of 2000 mg/kg, the maximum dosage in acute toxicity test, to each test group. […] On the last day of the test, 14th day from the start, the mice were subjected to an autopsy in order to examine changes of the internal organs. […] This means that the compounds of the present invention including those of Examples 2 and 4 are safe in the aspect of acute toxicity.

[2] = Acute toxicity test in mice (oral administration); conditions: both sexes, ICR, mouse, in vivo, 2000 mg/kg; mice, oral
Method: as §1

[3] = test system: pancreatic cancer cell of CAPAN-2; assay: Growth inhibition of CAPAN-2 (MTT); type: cell-based; conditions: for Improved activity versus 5-Fu / Improved activity versus cisplatin: CAPAN-2; for IC50: Homo sapiens, Capan-2, read-out: IC50
[4] = test system: U937 cancer cell (monocyte like leukemia cell line); assay: Growth inhibition of U937 cancer cell (MTT); type: cell-based; conditions: for IC50: Homo sapiens, U-937
Method: In the present experiment, the inhibitory activity of the compound of formula (1) was determined against the growth of K562 cancer cell. First, the cells were allowed to stand in RPMI (Roswell Park Memorial Institute)-1640 medium containing 10% (v/v) fetal bovine serum in an incubator of 37° C. and 5% by volume of CO2. The cancer cells (1000 cells) were transferred to a 96-well plate, and the test compound was diluted. The plate was allowed to stand under the above mentioned conditions for 2 days. After this treatment, to the cells was added 0.2% MTT (3-[4,5-dimethylthiazol-2-yl]-2,5-diphenyltetrazolium bromide) solution, and the resulting mixture was allowed to stand under the constant temperature-condition for 4 hours. The supernatant was removed to leave the resulting crystal. DMSO was added to dissolve the crystal, and the absorbance of the solution was measured at 540 nm. IC50 value was calculated using a computer system according to the following formula: […]
In the present experiment, the inhibitory activity of the compound of formula (1) was determined against the growth of U937 cancer cell. The test was performed according to the same procedure as Experiment 1.

[5] = Comparative pharmacokinetic test in white rats; type: in vivo, white rats (Sprague-Dawley); conditions: rat
Method: On the previous day to the test, white rats (Sprague-Dawley, 250˜280 g, male) were put under anesthesia by pentobarbital sodium (50 mg/kg, I.P.). Then, cannula (polyethylene tube; diameter: 0.58mm) was introduced into the rats via the carotid artery and jugular vein, and drawn out to the back. After the operation, the rats were fasted for 16 hours and used for the test. […] Blood was collected in 0, 0.5, 1, 1.5, 2, 2.5, 3, 3.5, 4, 4.5, 5, 6, 8, 10, 12, and 24 hours from the carotid artery. The samples for HPLC analysis were prepared using the collected blood according to the following procedure and were analyzed under the following conditions.
Blood was collected by an amount of 0.5 ml at each prearranged time and centrifuged at 15000 rpm for 7 minutes to separate […] of plasma. In order to remove proteins, MeOH was added in an amount of […], twice as much as the amount of plasma, and the mixture was shaken for 30 minutes. The mixture was centrifuged again at 15000 rpm for 5 minutes to give protein free supernatant, which was then analyzed by HPLC.
Flow rate: 1.0 ml/min, UV detection at 267 nm
Column: 4.6×150 mm, 5C18-AR-II, COSMOSIL
Eluent: Mixture of ion pair sample (420 ml) and MeOH (580 ml)
Ion pair sample: 7.5 g of 1-octanesulfonic acid was dissolved in 800 ml of water. The resulting mixture was adjusted to pH 2.5 using phosphoric acid and diluted with water to 1000 ml volume.
Here, the pharmacokinetic parameters are Tmax (time to reach the maximum blood concentration), Cmax (maximum blood concentration), AUC (area under the curve of time-blood concentration), and T1/2 (half time in blood), and the AUC was calculated under trapezoid rule (see Tables 6, 7 and FIGS. 1, 2).

sarcoma-180 = assay: Anti-cancer activity in sarcoma animal model; type: in vivo, ICR mouse; conditions: day 30; for Average tumor weight (Mean ± S.E.): three times at intervals of 4 days, in g (unit assumed)
Method: The anti-cancer activity against sarcoma-180 was determined using ICR mouse (22˜25 g, male). Sarcoma-180 (0.1 ml; 5×10^7 cells/ml) was hypodermically implanted to the left inguinal area of the mouse. After 72 hours from the hypodermic implantation, physiological saline was intravenously administered to the control group. For the test groups, the compound of Example 10 dissolved in physiological saline in a concentration of 25 or 50 mg/kg was intravenously administered three times at intervals of 4 days. On the 30th day from the implantation of the tumor cell, the mice were sacrificed to take out the induced solid tumors. The solid tumors were weighed, the average weight of the tumors was obtained, and the percent inhibition ratio was calculated according to the following formula:
Inhibition ratio (I.R.) (%)=[(Cw−Tw)/Cw]×100
I.R. represents the percent inhibition ratio,
Cw represents the average weight of tumor of the control group; and
Tw represents the average weight of tumor of the test group.

mice (ICR) [6] = assay: Acute toxicity test in mice (intravenous administration); type: in vivo
Method: (§2) In this test, the acute toxicity of the compound of the present invention when the compound is intravenously administered was determined on mice (ICR, 24˜26 g). One group consists of 10 males and 10 females. The first group is the control group and physiological saline was intravenously administered to this group. The compound of Example 10 was intravenously administered in dosages of 25, 50, 75, and 100 mg/kg, respectively, to each test group. […] On the last day of the test, 14th day from the start, the mice were subjected to an autopsy in order to examine changes of the internal organs. […] No mouse died in these test groups. Further, in the test group of 100 mg/kg dosage, 8 mice among 10 died within 10 minutes after the administration.

[7] = as above; type: in vivo; conditions: both sexes, ICR, mouse, in vivo, iv; mice, intravenously administered
Method: as §2

[8] = male, Sprague-Dawley, plasma, po, 50 mg/kg, P.O.
[9] = male, Sprague-Dawley, plasma, iv, 50 mg/kg, I.V.

**Q.** Which results are given for `CS(=O)(=O)O.Cc1ccc(NC(=O)c2ccc(CNN3CCN(C)CC3)cc2)cc1Nc1nccc(-c2cccnc2)n1` [Example 4, 4-(4-methylpiperazin-1-ylaminomethyl)-N-[4-methyl-3-(4-(pyridin-3-yl)pyrimidin-2-yl)aminophenyl]benzamide methanesulfonate]?
**A.** Clinical conditions and autopsy (mice (ICR) [1]): neither abnormal response nor specific autopsy result was observed; Mortality during the test period (mice (ICR) [1]): no mouse died; LD50 at 14 days [2]: ≥ 2000 mg/kg; Improved activity versus 5-Fu [3]: 17 times; Improved activity versus cisplatin [3]: 9 times; IC50 [3]: 56.3 µg/mL; Improved activity versus Imatinib mesylate [4]: 30 times; IC50 [4]: 0.9 µg/mL; Cmax [5, 8]: 3160 ng/mL; Tmax [5, 8]: 2 h; AUC ([5]; male, Sprague-Dawley, plasma, po, 50 mg/kg, P.O., trapezoid rule): 23000 ng·h/mL; AUC relative to Imatinib mesylate ([5]; both per oral 100 mg/kg): about twice; Cmax relative to Imatinib mesylate ([5]; both per oral 100 mg/kg): about twice

**Q.** For `CN1CCCN(Cc2ccc(C(=O)Nc3ccc(Nc4nccc(-c5cccnc5)n4)cc3)cc2)CC1.CS(=O)(=O)O` [Example 10, 4-(4-methylhomopiperazin-1-ylmethyl)-N-[4-(4-(pyridin-3-yl)pyrimidin-2-yl)aminophenyl]benzamide methanesulfonate], which “Percent Inhibition Ratio (I.R.)” value (sarcoma-180; 25 mg/kg i.v.) is on record?
**A.** 36.1%

**Q.** What about the “Average tumor weight (Mean ± S.E.)” value (sarcoma-180; 25 mg/kg i.v.) of the same compound?
**A.** 2.09 ± 1.4

**Q.** What about the “Percent Inhibition Ratio (I.R.)” value (sarcoma-180; 50 mg/kg i.v.) of the same compound?
**A.** 63.0%

**Q.** What about the “Average tumor weight (Mean ± S.E.)” value (sarcoma-180; 50 mg/kg i.v.) of the same compound?
**A.** 1.21 ± 1.2

**Q.** And the “Improved activity versus 5-Fu” value [3]?
**A.** > 20 times

**Q.** What about the “Improved activity versus cisplatin” value [3] of the same compound?
**A.** more than 10 times

**Q.** And the IC50 [3]?
**A.** 45.9 µg/mL

**Q.** And the IC50 [4]?
**A.** 7.3 µg/mL

**Q.** What about the AUC [5, 9] of the same compound?
**A.** 8920 ng·h/mL

**Q.** And the half-life [5, 9]?
**A.** 1.37 h

**Q.** What about the “Clinical conditions and autopsy” value (mice (ICR) [6]; 25 mg/kg i.v., 14 days) of the same compound?
**A.** neither abnormal response nor specific autopsy

**Q.** And the Mice died (mice (ICR) [6]; 100 mg/kg i.v., within 10 minutes after the administration)?
**A.** 8 mice among 10

**Q.** And the Clinical conditions (mice (ICR) [6]; 50 and 75 mg/kg i.v.)?
**A.** weak trembling immediately after the administration

**Q.** And the Mortality (mice (ICR) [6]; 50 and 75 mg/kg i.v.)?
**A.** No mouse died

**Q.** And the “Time to recovery from trembling” value (mice (ICR) [6]; 50 and 75 mg/kg i.v.)?
**A.** ≤ 1 h

**Q.** And the LD50 at 14 days [7]?
**A.** 75 to 100 mg/kg
